Experimental data taken from patent US12404295B2, “(Hetero)aryl-methyl-thio-beta-D-galactopyranoside derivatives” (Idorsia Pharmaceuticals Ltd, priority 2019, dated 2025).
Read-outs that look alike come from different tables or passages of the source.

Assays:
human Gal-3 (hGal-3) = human Gal-3 (hGal-3) (Homo sapiens (Human), UniProt P17931); assay: competitive binding assay: biotinylated hGal-3 binding to microplate-adsorbed asialofetuin (ASF)
Procedure, shortened: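 Competition of compounds with biotinylated human Gal-3 for asialofetuin-coated plates, 3 hours at 4° C. Bound Gal-3 detected with streptavidin-peroxidase (80 ng/mL, 1 hour, 4° C) and ABTS substrate. IC50 reported as the mean of several measurements.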

human Gal-1 (hGal-1) = human Gal-1 (hGal-1) (Homo sapiens (Human), UniProt P09382); assay: competitive binding assay: biotinylated hGal-1 binding to microplate-adsorbed asialofetuin (ASF); conditions: Table 15; read-out: IC50 (Galectin-1 inhibition)
Chain of human Gal-1 (hGal-1) (P09382 whole entry): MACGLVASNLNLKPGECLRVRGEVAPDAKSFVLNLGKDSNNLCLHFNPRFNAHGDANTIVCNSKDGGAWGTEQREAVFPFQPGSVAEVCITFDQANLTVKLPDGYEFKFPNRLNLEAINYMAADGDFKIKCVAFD
Procedure, shortened: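 Biotinylated human Gal-1 (300-1000 ng/mL) competes with serially diluted compound for binding to ASF-coated plates, 3 h at 4° C. Bound protein detected with streptavidin-peroxidase and ABTS substrate (spectrophotometric). IC50 given as mean of several measurements.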

[1] = Table 5, read-out: IC50 (Gal-3 inhibition)
[2] = Gal-3 inhibition, binding of biotinylated hGal-3 to ASF, mean values, read-out: IC50

Chain of human Gal-3 (hGal-3) (P17931 whole entry): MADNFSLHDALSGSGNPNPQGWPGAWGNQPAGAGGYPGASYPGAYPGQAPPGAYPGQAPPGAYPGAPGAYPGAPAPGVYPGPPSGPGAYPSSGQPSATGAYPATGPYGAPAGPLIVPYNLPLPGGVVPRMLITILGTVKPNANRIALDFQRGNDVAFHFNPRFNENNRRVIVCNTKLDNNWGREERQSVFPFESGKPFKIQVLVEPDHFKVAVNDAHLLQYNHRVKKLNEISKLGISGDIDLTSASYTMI

IC50 (human Gal-3 (hGal-3); [1]) | IC50 (human Gal-1 (hGal-1)) | IC50 (human Gal-3 (hGal-3); [2]) | SMILES
3000 nM | 21800 nM | – | OC[C@H]1O[C@@H](S[C@@H](c2ncccc2C(F)(F)F)C2(O)CCCCC2)[C@H](O)[C@@H](n2cc(-c3cc(F)c(F)c(F)c3)nn2)[C@H]1O [Example 2.39.125S., (2S,3R,4S,5R,6R)-2-(((S)-(1-Hydroxycyclohexyl)(3-(trifluoromethyl)pyridin-2-yl)methyl)thio)-6-(hydroxymethyl)-4-(4-(3,4,5-trifluorophenyl)-1H-1,2,3-triazol-1-yl)tetrahydro-2H-pyran-3,5-diol]
210 nM | 1110 nM | – | Cc1noc(C2CC2)c1C(S[C@@H]1O[C@H](CO)[C@H](O)[C@H](n2cc(-c3cc(F)c(F)c(F)c3)nn2)[C@H]1O)C1(O)CCCCC1 (stereo partly drawn) [Example 2.39.128., (2S,3R,4S,5R,6R)-2-(((5-Cyclopropyl-3-methylisoxazol-4-yl)(1-hydroxycyclohexyl)methyl)thio)-6-(hydroxymethyl)-4-(4-(3,4,5-trifluorophenyl)-1H-1,2,3-triazol-1-yl)tetrahydro-2H-pyran-3,5-diol]
190 nM | 1030 nM | – | Cc1noc(C2CC2)c1[C@@H](S[C@@H]1O[C@H](CO)[C@H](O)[C@H](n2cc(-c3cc(F)c(F)c(F)c3)nn2)[C@H]1O)C1(O)CCCCC1 [Example 2.39.128R., (2S,3R,4S,5R,6R)-2-(((R)-(5-Cyclopropyl-3-methylisoxazol-4-yl)(1-hydroxycyclohexyl)methyl)thio)-6-(hydroxymethyl)-4-(4-(3,4,5-trifluorophenyl)-1H-1,2,3-triazol-1-yl)tetrahydro-2H-pyran-3,5-diol]
3210 nM | 23200 nM | – | Cc1noc(C2CC2)c1[C@H](S[C@@H]1O[C@H](CO)[C@H](O)[C@H](n2cc(-c3cc(F)c(F)c(F)c3)nn2)[C@H]1O)C1(O)CCCCC1 [Example 2.39.128S., (2S,3R,4S,5R,6R)-2-(((S)-(5-Cyclopropyl-3-methylisoxazol-4-yl)(1-hydroxycyclohexyl)methyl)thio)-6-(hydroxymethyl)-4-(4-(3,4,5-trifluorophenyl)-1H-1,2,3-triazol-1-yl)tetrahydro-2H-pyran-3,5-diol]
90 nM | 730 nM | – | Cc1ccccc1C(S[C@@H]1O[C@H](CO)[C@H](O)[C@H](n2cc(-c3cc(F)c(F)c(F)c3)nn2)[C@H]1O)C1(O)CCN(C)CC1 (stereo partly drawn) [Example 2.40.102., (2S,3R,4S,5R,6R)-2-(((4-Hydroxy-1-methylpiperidin-4-yl)(o-tolyl)methyl)thio)-6-(hydroxymethyl)-4-(4-(3,4,5-trifluorophenyl)-1H-1,2,3-triazol-1-yl)tetrahydro-2H-pyran-3,5-diol]
130 nM | 420 nM | – | CN1CCC(O)(C(S[C@@H]2O[C@H](CO)[C@H](O)[C@H](n3cc(-c4cc(F)c(F)c(F)c4)nn3)[C@H]2O)c2ccccc2C(F)(F)F)CC1 (stereo partly drawn) [Example 2.40.112., (2S,3R,4S,5R,6R)-2-(((4-Hydroxy-1-methylpiperidin-4-yl)(2-(trifluoromethyl)phenyl)methyl)thio)-6-(hydroxymethyl)-4-(4-(3,4,5-trifluorophenyl)-1H-1,2,3-triazol-1-yl)tetrahydro-2H-pyran-3,5-diol]
60 nM | 150 nM | – | CN1CCC(O)([C@H](S[C@@H]2O[C@H](CO)[C@H](O)[C@H](n3cc(-c4cc(F)c(F)c(F)c4)nn3)[C@H]2O)c2ccccc2C(F)(F)F)CC1 [Example 2.40.112R., (2S,3R,4S,5R,6R)-2-(((R)-(4-Hydroxy-1-methylpiperidin-4-yl)(2-(trifluoromethyl)phenyl)methyl)thio)-6-(hydroxymethyl)-4-(4-(3,4,5-trifluorophenyl)-1H-1,2,3-triazol-1-yl)tetrahydro-2H-pyran-3,5-diol]
3950 nM | 21700 nM | – | CN1CCC(O)([C@@H](S[C@@H]2O[C@H](CO)[C@H](O)[C@H](n3cc(-c4cc(F)c(F)c(F)c4)nn3)[C@H]2O)c2ccccc2C(F)(F)F)CC1 [Example 2.40.112S., (2S,3R,4S,5R,6R)-2-(((S)-(4-Hydroxy-1-methylpiperidin-4-yl)(2-(trifluoromethyl)phenyl)methyl)thio)-6-(hydroxymethyl)-4-(4-(3,4,5-trifluorophenyl)-1H-1,2,3-triazol-1-yl)tetrahydro-2H-pyran-3,5-diol]
– | 270 nM | 100 nM | Cc1nc(C)c(C(S[C@@H]2O[C@H](CO)[C@H](O)[C@H](n3cc(-c4cc(F)c(F)c(F)c4)nn3)[C@H]2O)C2(O)CCN(C)CC2)nc1C (stereo partly drawn) [Example 2.40.119., (2S,3R,4S,5R,6R)-2-(((4-Hydroxy-1-methylpiperidin-4-yl)(3,5,6-trimethylpyrazin-2-yl)methyl)thio)-6-(hydroxymethyl)-4-(4-(3,4,5-trifluorophenyl)-1H-1,2,3-triazol-1-yl)tetrahydro-2H-pyran-3,5-diol]
– | 110 nM | 50 nM | Cc1nc(C)c([C@@H](S[C@@H]2O[C@H](CO)[C@H](O)[C@H](n3cc(-c4cc(F)c(F)c(F)c4)nn3)[C@H]2O)C2(O)CCN(C)CC2)nc1C [Example 2.40.119R., (2S,3R,4S,5R,6R)-2-(((R)-(4-Hydroxy-1-methylpiperidin-4-yl)(3,5,6-trimethylpyrazin-2-yl)methyl)thio)-6-(hydroxymethyl)-4-(4-(3,4,5-trifluorophenyl)-1H-1,2,3-triazol-1-yl)tetrahydro-2H-pyran-3,5-diol]
– | 10800 nM | 3040 nM | Cc1nc(C)c([C@H](S[C@@H]2O[C@H](CO)[C@H](O)[C@H](n3cc(-c4cc(F)c(F)c(F)c4)nn3)[C@H]2O)C2(O)CCN(C)CC2)nc1C [Example 2.40.119S., (2S,3R,4S,5R,6R)-2-(((S)-(4-Hydroxy-1-methylpiperidin-4-yl)(3,5,6-trimethylpyrazin-2-yl)methyl)thio)-6-(hydroxymethyl)-4-(4-(3,4,5-trifluorophenyl)-1H-1,2,3-triazol-1-yl)tetrahydro-2H-pyran-3,5-diol]
200 nM | 530 nM | – | CN1CCC(O)(C(S[C@@H]2O[C@H](CO)[C@H](O)[C@H](n3cc(-c4cc(F)c(F)c(F)c4)nn3)[C@H]2O)c2ncccc2C(F)(F)F)CC1 (stereo partly drawn) [Example 2.40.125., (2S,3R,4S,5R,6R)-2-(((4-Hydroxy-1-methylpiperidin-4-yl)(3-(trifluoromethyl)pyridin-2-yl)methyl)thio)-6-(hydroxymethyl)-4-(4-(3,4,5-trifluorophenyl)-1H-1,2,3-triazol-1-yl)tetrahydro-2H-pyran-3,5-diol]
20 nM | 40 nM | – | CN1CCC(O)([C@H](S[C@@H]2O[C@H](CO)[C@H](O)[C@H](n3cc(-c4cc(F)c(F)c(F)c4)nn3)[C@H]2O)c2ncccc2C(F)(F)F)CC1 [Example 2.40.125R., (2S,3R,4S,5R,6R)-2-(((R)-(4-Hydroxy-1-methylpiperidin-4-yl)(3-(trifluoromethyl)pyridin-2-yl)methyl)thio)-6-(hydroxymethyl)-4-(4-(3,4,5-trifluorophenyl)-1H-1,2,3-triazol-1-yl)tetrahydro-2H-pyran-3,5-diol]
3650 nM | 11200 nM | – | CN1CCC(O)([C@@H](S[C@@H]2O[C@H](CO)[C@H](O)[C@H](n3cc(-c4cc(F)c(F)c(F)c4)nn3)[C@H]2O)c2ncccc2C(F)(F)F)CC1 [Example 2.40.125S., (2S,3R,4S,5R,6R)-2-(((S)-(4-Hydroxy-1-methylpiperidin-4-yl)(3-(trifluoromethyl)pyridin-2-yl)methyl)thio)-6-(hydroxymethyl)-4-(4-(3,4,5-trifluorophenyl)-1H-1,2,3-triazol-1-yl)tetrahydro-2H-pyran-3,5-diol]
90 nM | 1610 nM | – | Cc1ccccc1C(S[C@@H]1O[C@H](CO)[C@H](O)[C@H](n2cc(-c3cc(F)c(F)c(F)c3)nn2)[C@H]1O)C1(O)CCOCC1 (stereo partly shown) [Example 2.41.102.]
40 nM | 210 nM | – | Cc1ccccc1[C@@H](S[C@@H]1O[C@H](CO)[C@H](O)[C@H](n2cc(-c3cc(F)c(F)c(F)c3)nn2)[C@H]1O)C1(O)CCOCC1 [Example 2.41.102R.]
7360 nM | 65400 nM | – | Cc1ccccc1[C@H](S[C@@H]1O[C@H](CO)[C@H](O)[C@H](n2cc(-c3cc(F)c(F)c(F)c3)nn2)[C@H]1O)C1(O)CCOCC1 [Example 2.41.102S.]
110 nM | 900 nM | – | OC[C@H]1O[C@@H](SC(c2ccccc2C(F)(F)F)C2(O)CCOCC2)[C@H](O)[C@@H](n2cc(-c3cc(F)c(F)c(F)c3)nn2)[C@H]1O (stereo partly drawn) [Example 2.41.112., (2R,3R,4S,5R,6S)-2-(Hydroxymethyl)-6-(((4-hydroxytetrahydro-2H-pyran-4-yl)(2-(trifluoromethyl)phenyl)methyl)thio)-4-(4-(3,4,5-trifluorophenyl)-1H-1,2,3-triazol-1-yl)tetrahydro-2H-pyran-3,5-diol]
80 nM | 900 nM | – | OC[C@H]1O[C@@H](S[C@H](c2ccccc2C(F)(F)F)C2(O)CCOCC2)[C@H](O)[C@@H](n2cc(-c3cc(F)c(F)c(F)c3)nn2)[C@H]1O [Example 2.41.112R., (2R,3R,4S,5R,6S)-2-(Hydroxymethyl)-6-(((R)-(4-hydroxytetrahydro-2H-pyran-4-yl)(2-(trifluoromethyl)phenyl)methyl)thio)-4-(4-(3,4,5-trifluorophenyl)-1H-1,2,3-triazol-1-yl)tetrahydro-2H-pyran-3,5-diol]
6000 nM | 59400 nM | – | OC[C@H]1O[C@@H](S[C@@H](c2ccccc2C(F)(F)F)C2(O)CCOCC2)[C@H](O)[C@@H](n2cc(-c3cc(F)c(F)c(F)c3)nn2)[C@H]1O [Example 2.41.112S., (2R,3R,4S,5R,6S)-2-(Hydroxymethyl)-6-(((S)-(4-hydroxytetrahydro-2H-pyran-4-yl)(2-(trifluoromethyl)phenyl)methyl)thio)-4-(4-(3,4,5-trifluorophenyl)-1H-1,2,3-triazol-1-yl)tetrahydro-2H-pyran-3,5-diol]
